{
  "source": "paper PMC5218480",
  "about": "(PLoS ONE, 2017)",
  "test_system": "MV-4-11 cells",
  "assay": "Gene expression microarray analysis (Affymetrix PrimeView) and GSEA",
  "format": "cell-based, human",
  "parameters": "RFU PODN (11730768_x_at) / Fold change /veh PODN (11730768_x_at) / RFU LINC00158 (11744669_a_at) / Fold change /veh LINC00158 (11744669_a_at) / RFU DUSP10 (11751237_a_at) / Fold change /veh DUSP10 (11751237_a_at) / RFU ID3 (11757404_x_at) / Fold change /veh ID3 (11757404_x_at) / RFU PLEKHG5 (11737974_s_at) / Fold change /veh PLEKHG5 (11737974_s_at) / RFU LRRC4B (11730491_at) / Fold change /veh LRRC4B (11730491_at) / RFU GIMAP4 (11747438_a_at) / Fold change /veh GIMAP4 (11747438_a_at) / RFU KRT8 (11758183_x_at) / Fold change /veh KRT8 (11758183_x_at) / RFU CNN1 (11734310_a_at) / Fold change /veh CNN1 (11734310_a_at) / RFU VPS37D (11726825_at) / Fold change /veh VPS37D (11726825_at) / RFU C10orf10 (11716522_x_at) / Fold change /veh C10orf10 (11716522_x_at) / RFU KIR2DL2 /// KIR2DL4 /// KIR2DL5A /// KIR2DL5B /// KIR2DS1 /// KIR2DS2 /// KIR2DS3 /// KIR2DS4 /// KIR3DL3 /// KIR3DL3 /// KIR3DS1 (11738374_at) / Fold change /veh KIR2DL2 /// KIR2DL4 /// KIR2DL5A /// KIR2DL5B /// KIR2DS1 /// KIR2DS2 /// KIR2DS3 /// KIR2DS4 /// KIR3DL3 /// KIR3DL3 /// KIR3DS1 (11738374_at) / RFU C1QL1 (11718748_at) / Fold change /veh C1QL1 (11718748_at) / RFU TMPRSS4 (11747572_a_at) / Fold change /veh TMPRSS4 (11747572_a_at) / RFU HAMP (11756126_x_at) / Fold change /veh HAMP (11756126_x_at) / RFU RNFT2 (11725882_a_at) / Fold change /veh RNFT2 (11725882_a_at) / RFU NR4A2 (11747474_a_at) / Fold change /veh NR4A2 (11747474_a_at) / RFU ABCC12 (11746883_a_at) / Fold change /veh ABCC12 (11746883_a_at) / RFU TMEM136 (11760407_x_at) / Fold change /veh TMEM136 (11760407_x_at) / RFU CLDN22 /// WWC2 (11732394_at) / Fold change /veh CLDN22 /// WWC2 (11732394_at) / RFU HLA-DPB1 (11760878_x_at) / Fold change /veh HLA-DPB1 (11760878_x_at) / RFU SPINT1 (11716480_a_at) / Fold change /veh SPINT1 (11716480_a_at) / RFU GAP43 (11754022_s_at) / Fold change /veh GAP43 (11754022_s_at) / RFU A4GNT (11735810_at) / Fold change /veh A4GNT (11735810_at) / RFU PRB3 (11715151_x_at) / Fold change /veh PRB3 (11715151_x_at) / RFU TUBB4B (11761932_at) / Fold change /veh TUBB4B (11761932_at) / RFU CAPN14 (11732068_a_at) / Fold change /veh CAPN14 (11732068_a_at) / RFU TMCC2 (11721928_a_at) / Fold change /veh TMCC2 (11721928_a_at) / RFU IRGQ (11745062_a_at) / Fold change /veh IRGQ (11745062_a_at) / RFU FAM174B (11720279_a_at) / Fold change /veh FAM174B (11720279_a_at) / RFU TMPRSS4 (11748680_a_at) / Fold change /veh TMPRSS4 (11748680_a_at) / RFU FAM212B (11763350_a_at) / Fold change /veh FAM212B (11763350_a_at) / RFU PLEKHG5 (11743358_a_at) / Fold change /veh PLEKHG5 (11743358_a_at) / RFU ZSCAN30 (11745921_a_at) / Fold change /veh ZSCAN30 (11745921_a_at) / RFU CMKLR1 (11741424_a_at) / Fold change /veh CMKLR1 (11741424_a_at) / RFU LOC101060620 /// MAPK8IP1 (11723275_at) / Fold change /veh LOC101060620 /// MAPK8IP1 (11723275_at) / RFU SPTSSB (11747773_x_at) / Fold change /veh SPTSSB (11747773_x_at) / RFU PRSS12 (11739890_at) / Fold change /veh PRSS12 (11739890_at) / RFU BIN1 (11741810_x_at) / Fold change /veh BIN1 (11741810_x_at) / RFU WNT11 (11732464_a_at) / Fold change /veh WNT11 (11732464_a_at) / RFU C10orf10 (11716521_a_at) / Fold change /veh C10orf10 (11716521_a_at) / RFU C5orf56 (11738089_at) / Fold change /veh C5orf56 (11738089_at) / RFU CYB561 (11721691_x_at) / Fold change /veh CYB561 (11721691_x_at) / RFU ANKRD19P (11752326_a_at) / Fold change /veh ANKRD19P (11752326_a_at) / RFU OR2T12 /// OR2T33 /// OR2T8 (11738714_s_at) / Fold change /veh OR2T12 /// OR2T33 /// OR2T8 (11738714_s_at) / RFU VCAN (11748164_a_at) / Fold change /veh VCAN (11748164_a_at) / RFU JSRP1 (11732532_at) / Fold change /veh JSRP1 (11732532_at) / RFU KRTAP10-11 (11738290_x_at) / Fold change /veh KRTAP10-11 (11738290_x_at) / RFU MYO3A (11730013_a_at) / Fold change /veh MYO3A (11730013_a_at) / RFU EBF3 (11725865_a_at) / Fold change /veh EBF3 (11725865_a_at) / RFU CAMK2N1 (11719241_x_at) / Fold change /veh CAMK2N1 (11719241_x_at) / RFU C5orf56 (11738088_a_at) / Fold change /veh C5orf56 (11738088_a_at) / RFU OLFML3 (11715873_a_at) / Fold change /veh OLFML3 (11715873_a_at) / RFU LOC100653217 /// NTM (11731650_a_at) / Fold change /veh LOC100653217 /// NTM (11731650_a_at) / RFU MAPK11 (11762145_a_at) / Fold change /veh MAPK11 (11762145_a_at) / RFU FIZ1 (11724087_x_at) / Fold change /veh FIZ1 (11724087_x_at) / RFU OASL (11726364_x_at) / Fold change /veh OASL (11726364_x_at) / RFU SOX15 (11748057_x_at) / Fold change /veh SOX15 (11748057_x_at) / RFU CD79A (11719716_a_at) / Fold change /veh CD79A (11719716_a_at) / RFU HIST1H1D (11736915_at) / Fold change /veh HIST1H1D (11736915_at) / RFU CASKIN2 (11723855_a_at) / Fold change /veh CASKIN2 (11723855_a_at) / RFU LOC730098 (11760151_x_at) / Fold change /veh LOC730098 (11760151_x_at) / RFU OR4N2 (11742367_at) / Fold change /veh OR4N2 (11742367_at) / RFU PRRT2 (11749266_a_at) / Fold change /veh PRRT2 (11749266_a_at) / RFU SNX32 (11753110_a_at) / Fold change /veh SNX32 (11753110_a_at) / RFU CDHR5 (11726645_a_at) / Fold change /veh CDHR5 (11726645_a_at) / RFU RCAN1 (11760418_a_at) / Fold change /veh RCAN1 (11760418_a_at) / RFU FAM167A (11723789_a_at) / Fold change /veh FAM167A (11723789_a_at) / RFU FAM26E (11764081_at) / Fold change /veh FAM26E (11764081_at) / RFU ISYNA1 (11749810_s_at) / Fold change /veh ISYNA1 (11749810_s_at) / RFU ACY1 (11761880_at) / Fold change /veh ACY1 (11761880_at) / RFU 11764098_at / Fold change /veh 11764098_at / RFU SAMD14 (11745864_x_at) / Fold change /veh SAMD14 (11745864_x_at) / RFU NPB (11741838_a_at) / Fold change /veh NPB (11741838_a_at) / RFU TMPRSS6 (11731388_a_at) / Fold change /veh TMPRSS6 (11731388_a_at) / RFU KRTAP10-2 (11738614_at) / Fold change /veh KRTAP10-2 (11738614_at) / RFU ARHGAP8 /// PRR5-ARHGAP8 (11727945_x_at) / Fold change /veh ARHGAP8 /// PRR5-ARHGAP8 (11727945_x_at) / RFU KRTAP5-7 /// NADSYN1 (11734609_at) / Fold change /veh KRTAP5-7 /// NADSYN1 (11734609_at) / RFU RASL12 (11751679_a_at) / Fold change /veh RASL12 (11751679_a_at) / RFU CDKN2B (11736163_a_at) / Fold change /veh CDKN2B (11736163_a_at) / RFU PRF1 (11729649_at) / Fold change /veh PRF1 (11729649_at) / RFU, ZNF638 /// ZNF638-IT1 / Fold change vs veh, ZNF638 /// ZNF638-IT1 / RFU, PANK3 / Fold change vs veh, PANK3 / RFU, SH3YL1 / Fold change vs veh, SH3YL1 / RFU, ZEB2 / Fold change vs veh, ZEB2 / RFU, NRIP1 / Fold change vs veh, NRIP1 / RFU, PTTG1IP / Fold change vs veh, PTTG1IP / RFU, CAPN2 / Fold change vs veh, CAPN2 / RFU, MED14 / Fold change vs veh, MED14 / RFU, SNORA58 / Fold change vs veh, SNORA58 / RFU, C1orf63 / Fold change vs veh, C1orf63 / RFU, LRRFIP1 / Fold change vs veh, LRRFIP1 / RFU, NDUFAF7 / Fold change vs veh, NDUFAF7 / RFU, SLC12A2 / Fold change vs veh, SLC12A2 / RFU, IBTK / Fold change vs veh, IBTK / RFU, ESF1 / Fold change vs veh, ESF1 / Fold change vs veh, TMEM50B / RFU, TAOK1 / Fold change vs veh, TAOK1 / RFU, ACBD3 / Fold change vs veh, ACBD3 / RFU, TMA16 / Fold change vs veh, TMA16 / RFU, RWDD3 / Fold change vs veh, RWDD3 / RFU, BCAT1 / Fold change vs veh, BCAT1 / RFU, EDEM3 / Fold change vs veh, EDEM3 / RFU, TMEM33 / Fold change vs veh, TMEM33 / RFU, WDR75 / Fold change vs veh, WDR75 / RFU, AHCTF1 / Fold change vs veh, AHCTF1 / RFU, TFRC / Fold change vs veh, TFRC / RFU, ZDHHC17 / Fold change vs veh, ZDHHC17 / RFU, NOM1 / Fold change vs veh, NOM1 / RFU, ARL8B / Fold change vs veh, ARL8B / RFU, ZBTB11 / Fold change vs veh, ZBTB11 / RFU, TAMM41 / Fold change vs veh, TAMM41 / RFU, KIAA1704 /// LOC100996395 / Fold change vs veh, KIAA1704 /// LOC100996395 / RFU, ING1 / Fold change vs veh, ING1 / RFU, TRMT61B / Fold change vs veh, TRMT61B / RFU, FUBP3 / Fold change vs veh, FUBP3 / RFU, TP53 / Fold change vs veh, TP53 / RFU, TNKS2 / Fold change vs veh, TNKS2 / RFU, ZFP14 / Fold change vs veh, ZFP14 / RFU, ACTR2 / Fold change vs veh, ACTR2 / RFU, PPP3R1 / Fold change vs veh, PPP3R1 / RFU, PIK3R1 / Fold change vs veh, PIK3R1 / RFU, HNRNPA1 / Fold change vs veh, HNRNPA1 / RFU, RNF170 / Fold change vs veh, RNF170 / RFU, ZNF28 / Fold change vs veh, ZNF28 / RFU, RNGTT / Fold change vs veh, RNGTT / RFU, OGT / Fold change vs veh, OGT / RFU, BRD1 / Fold change vs veh, BRD1 / RFU, MARS / Fold change vs veh, MARS / RFU, ZNF655 / Fold change vs veh, ZNF655 / RFU, FAHD1 / Fold change vs veh, FAHD1 / RFU, BDP1 / Fold change vs veh, BDP1 / RFU, LRRCC1 / Fold change vs veh, LRRCC1 / RFU, ARID1A / Fold change vs veh, ARID1A / RFU, ZNF146 / Fold change vs veh, ZNF146 / RFU, ZNF330 / Fold change vs veh, ZNF330 / RFU, GPN3 / Fold change vs veh, GPN3 / RFU, C9orf123 / Fold change vs veh, C9orf123 / RFU, N4BP2L2 / Fold change vs veh, N4BP2L2 / RFU, ARFIP1 / Fold change vs veh, ARFIP1 / RFU, FAM179B / Fold change vs veh, FAM179B / RFU, BCL10 / Fold change vs veh, BCL10 / RFU, UHRF1BP1L / Fold change vs veh, UHRF1BP1L / RFU, BET1 / Fold change vs veh, BET1 / RFU, CNOT2 / Fold change vs veh, CNOT2 / RFU, ZNF268 / Fold change vs veh, ZNF268 / Fold change vs veh, ZNF507 / RFU, DGCR2 / Fold change vs veh, DGCR2 / RFU, WDSUB1 / Fold change vs veh, WDSUB1 / Fold change vs veh, HSP90B1 /// MIR3652 / RFU, ADSS / Fold change vs veh, ADSS / RFU, GK / Fold change vs veh, GK / RFU, ZNF148 / Fold change vs veh, ZNF148 / RFU, TAF9 / Fold change vs veh, TAF9 / RFU, SLC1A5 / Fold change vs veh, SLC1A5 / RFU, SLMO2 / Fold change vs veh, SLMO2 / RFU, ABCC4 / Fold change vs veh, ABCC4 / RFU, LOC101060439 /// RAP1B / Fold change vs veh, LOC101060439 /// RAP1B / RFU, RFX7 / Fold change vs veh, RFX7 / RFU, GTPBP10 / Fold change vs veh, GTPBP10 / RFU, CNEP1R1 / Fold change vs veh, CNEP1R1 / RFU, BIVM-ERCC5 /// ERCC5 / Fold change vs veh, BIVM-ERCC5 /// ERCC5 / RFU, ILF3 / Fold change vs veh, ILF3 / RFU 11762660_at / Fold change /veh 11762660_at / RFU VCAN (11757783_s_at) / Fold change /veh VCAN (11757783_s_at) / RFU DDX43 (11728927_at) / Fold change /veh DDX43 (11728927_at) / RFU KRT8 (11758188_x_at) / Fold change /veh KRT8 (11758188_x_at) / RFU NKD1 (11759106_at) / Fold change /veh NKD1 (11759106_at) / RFU SRD5A1 (11742802_a_at) / Fold change /veh SRD5A1 (11742802_a_at) / RFU TPSAB1 /// TPSB2 (11721975_s_at) / Fold change /veh TPSAB1 /// TPSB2 (11721975_s_at) / RFU GSTM3 (11746129_a_at) / Fold change /veh GSTM3 (11746129_a_at) / RFU IL23R (11737362_x_at) / Fold change /veh IL23R (11737362_x_at) / RFU TMEM51 (11727254_a_at) / Fold change /veh TMEM51 (11727254_a_at) / RFU PIWIL2 (11732686_x_at) / Fold change /veh PIWIL2 (11732686_x_at) / RFU ORM1 (11744905_x_at) / Fold change /veh ORM1 (11744905_x_at) / RFU CCDC152 (11743942_at) / Fold change /veh CCDC152 (11743942_at) / RFU ECM1 (11717891_a_at) / Fold change /veh ECM1 (11717891_a_at) / RFU IL23R (11748794_a_at) / Fold change /veh IL23R (11748794_a_at) / RFU TNFAIP8L3 (11732012_x_at) / Fold change /veh TNFAIP8L3 (11732012_x_at) / RFU MBOAT4 (11741988_at) / Fold change /veh MBOAT4 (11741988_at) / RFU 11764193_at / Fold change /veh 11764193_at / RFU TMEM53 (11763286_at) / Fold change /veh TMEM53 (11763286_at) / RFU MAGEB2 (11727129_at) / Fold change /veh MAGEB2 (11727129_at) / RFU TMEM200A (11744735_a_at) / Fold change /veh TMEM200A (11744735_a_at) / RFU CCDC152 (11751479_a_at) / Fold change /veh CCDC152 (11751479_a_at) / RFU FAM211A (11726209_a_at) / Fold change /veh FAM211A (11726209_a_at) / RFU RGS16 (11746705_a_at) / Fold change /veh RGS16 (11746705_a_at) / RFU VCAN (11755009_s_at) / Fold change /veh VCAN (11755009_s_at) / RFU RHOB (11743442_s_at) / Fold change /veh RHOB (11743442_s_at) / RFU RGS16 (11720943_a_at) / Fold change /veh RGS16 (11720943_a_at) / RFU RGS16 (11720944_at) / Fold change /veh RGS16 (11720944_at) / RFU, VPS4B / Fold change vs veh, VPS4B / RFU, CREB1 / Fold change vs veh, CREB1 / RFU, DNAJC13 / Fold change vs veh, DNAJC13 / RFU, GNAQ / Fold change vs veh, GNAQ / RFU, CDK5R1 / Fold change vs veh, CDK5R1 / RFU, ZRANB3 / Fold change vs veh, ZRANB3 / RFU, CUL4A / Fold change vs veh, CUL4A / RFU, CCNY / Fold change vs veh, CCNY / RFU, UFL1 / Fold change vs veh, UFL1 / RFU, COG3 / Fold change vs veh, COG3 / RFU, DIAPH2 / Fold change vs veh, DIAPH2 / RFU, SKA2 / Fold change vs veh, SKA2 / RFU, AFF3 / Fold change vs veh, AFF3 / RFU, LMF1 / Fold change vs veh, LMF1 / RFU, IPO11 / Fold change vs veh, IPO11 / RFU, DFFB / Fold change vs veh, DFFB / RFU, FOXP1 / Fold change vs veh, FOXP1 / RFU, CARD8 / Fold change vs veh, CARD8 / RFU, STRN3 / Fold change vs veh, STRN3 / RFU, ADK / Fold change vs veh, ADK / RFU, RASSF2 / Fold change vs veh, RASSF2 / RFU, WIPF1 / Fold change vs veh, WIPF1 / RFU, LARP1B / Fold change vs veh, LARP1B / RFU, RASA1 / Fold change vs veh, RASA1 / RFU, RB1 / Fold change vs veh, RB1 / RFU, PPFIA1 / Fold change vs veh, PPFIA1 / RFU, MAT2A / Fold change vs veh, MAT2A / RFU, CCT5 / Fold change vs veh, CCT5 / RFU, WDR92 / Fold change vs veh, WDR92 / RFU, CUX1 / Fold change vs veh, CUX1 / RFU, TTC7A / Fold change vs veh, TTC7A / RFU, TMEM135 / Fold change vs veh, TMEM135 / RFU, DEPTOR / Fold change vs veh, DEPTOR / RFU, CPM / Fold change vs veh, CPM / RFU, DNAJB6 / Fold change vs veh, DNAJB6 / RFU, CACNA2D3 / Fold change vs veh, CACNA2D3 / RFU, DTX4 / Fold change vs veh, DTX4 / RFU, TFCP2 / Fold change vs veh, TFCP2 / RFU, GMCL1 /// GMCL1P1 / Fold change vs veh, GMCL1 /// GMCL1P1 / RFU, AEBP2 / Fold change vs veh, AEBP2 / RFU, SNHG1 /// SNORD22 /// SNORD25 /// SNORD26 /// SNORD27 /// SNORD28 /// SNORD29 /// SNORD31 / Fold change vs veh, SNHG1 /// SNORD22 /// SNORD25 /// SNORD26 /// SNORD27 /// SNORD28 /// SNORD29 /// SNORD31 / Fold change (Aza/veh), C12orf56 (ProbeSet 11735607_a_at) / Fold change (ACY-1035/veh), C12orf56 (ProbeSet 11735607_a_at) / Fold change (Aza/veh), FGFR1OP (ProbeSet 11751329_s_at) / Fold change (ACY-1035/veh), FGFR1OP (ProbeSet 11751329_s_at) / Fold change (Aza/veh), VPS36 (ProbeSet 11739960_a_at) / Fold change (ACY-1035/veh), VPS36 (ProbeSet 11739960_a_at) / RFU SYPL1 (11715823_x_at) / Fold change /veh SYPL1 (11715823_x_at) / RFU IGFBP7 (11715501_s_at) / Fold change /veh IGFBP7 (11715501_s_at) / RFU REEP3 (11722064_at) / Fold change /veh REEP3 (11722064_at) / RFU IGLL1 (11728026_x_at) / Fold change /veh IGLL1 (11728026_x_at): dose or concentration left out as unconfirmed",
  "conditions": "ProbeSet 11733176_x_at; LIST B",
  "data": [
    {"smiles": "Nc1ncn([C@@H]2O[C@H](CO)[C@@H](O)[C@H]2O)c(=O)n1", "note": "[azacitidine]", "values": [
      {"measurement": "Fold change vs veh, ZNF507", "value": 0.97}
    ]}
  ]
}
